Results: publication PMC10041525, “New Dual Inhibitors of Bacterial Topoisomerases with Broad-Spectrum Antibacterial Activity and In Vivo Efficacy against Vancomycin-Intermediate Staphylococcus aureus” (Journal of Medicinal Chemistry, 2023)
Converted amounts (≈) assume the structure as drawn. Read-outs that look alike come from different tables or passages of the source.

System: 100 A. baumannii strains (50 MDR, 50 non-MDR)
Test: MIC broth microdilution at IHMA Europe, panel of 100 strains
Type: cell-based
Conditions: Acinetobacter baumannii, read-out: MIC

- MIC (A. baumannii IHMA 1769782, Israel 2018, MDR): > 32 µg/mL
- MIC (A. baumannii IHMA 1769910, Israel 2018, Non-MDR): 8 µg/mL (≈ 16.6 µM)
- MIC (A. baumannii IHMA 1790317, Czech Republic 2018, Non-MDR): 1 µg/mL (≈ 2.08 µM)
- MIC (A. baumannii IHMA 1790916, Romania 2018, Non-MDR): 0.5 µg/mL (≈ 1.04 µM)
- MIC (A. baumannii IHMA 1791877, Israel 2018, MDR): > 32 µg/mL
- MIC (A. baumannii IHMA 1792961, Jordan 2018, MDR): > 32 µg/mL
- MIC (A. baumannii IHMA 1795669, Tunisia 2018, Non-MDR): 4 µg/mL (≈ 8.32 µM)
- MIC (A. baumannii IHMA 1814276, Lebanon 2018, MDR): > 32 µg/mL
- MIC (A. baumannii IHMA 1815198, Kuwait 2018, MDR): > 32 µg/mL
- MIC (A. baumannii IHMA 1815856, Israel 2018, MDR): > 32 µg/mL
- MIC (A. baumannii IHMA 1829500, Georgia 2018, Non-MDR): 1 µg/mL (≈ 2.08 µM)
- MIC (A. baumannii IHMA 1830924, United Kingdom 2018, Non-MDR): 4 µg/mL (≈ 8.32 µM)
- MIC (A. baumannii IHMA 1849819, Kuwait 2018, MDR): > 32 µg/mL
- MIC (A. baumannii IHMA 1849829, Kuwait 2018, Non-MDR): 1 µg/mL (≈ 2.08 µM)
- MIC (A. baumannii IHMA 1857118, Slovenia 2018, Non-MDR): 1 µg/mL (≈ 2.08 µM)
- MIC (A. baumannii IHMA 1863631, France 2018, Non-MDR): 1 µg/mL (≈ 2.08 µM)
- MIC (A. baumannii IHMA 1884428, Italy 2018, Non-MDR): 1 µg/mL (≈ 2.08 µM)
- MIC (A. baumannii IHMA 1884990, Germany 2018, Non-MDR): 1 µg/mL (≈ 2.08 µM)
- MIC (A. baumannii IHMA 1900538, Turkey 2018, Non-MDR): 0.5 µg/mL (≈ 1.04 µM)
- MIC (A. baumannii IHMA 1913773, Kenya 2018, Non-MDR): 1 µg/mL (≈ 2.08 µM)
- MIC (A. baumannii IHMA 1926285, Qatar 2018, Non-MDR): ≤ 0.25 µg/mL
- MIC (A. baumannii IHMA 1926288, Qatar 2018, MDR): 32 µg/mL (≈ 66.6 µM)
- MIC (A. baumannii IHMA 1963732, Turkey 2019, MDR): 32 µg/mL (≈ 66.6 µM)
- MIC (A. baumannii IHMA 1967860, Spain 2019, Non-MDR): 4 µg/mL (≈ 8.32 µM)
- MIC (A. baumannii IHMA 1971673, Latvia 2019, MDR): > 32 µg/mL
- MIC (A. baumannii IHMA 1983151, Greece 2019, MDR): 32 µg/mL (≈ 66.6 µM)
- MIC (A. baumannii IHMA 1984665, Lithuania 2019, MDR): > 32 µg/mL
- MIC (A. baumannii IHMA 1986738, Turkey 2019, MDR): > 32 µg/mL
- MIC (A. baumannii IHMA 1987162, Croatia 2019, MDR): > 32 µg/mL
- MIC (A. baumannii IHMA 1993615, Turkey 2019, MDR): > 32 µg/mL
- MIC (A. baumannii IHMA 1994284, Italy 2019, MDR): 32 µg/mL (≈ 66.6 µM)
- MIC (A. baumannii IHMA 1995161, Czech Republic 2019, Non-MDR): 1 µg/mL (≈ 2.08 µM)
- MIC (A. baumannii IHMA 1997936, Morocco 2019, Non-MDR): 1 µg/mL (≈ 2.08 µM)
- MIC (A. baumannii IHMA 1999178, Belgium 2019, Non-MDR): 1 µg/mL (≈ 2.08 µM)
- MIC (A. baumannii IHMA 2003279, Turkey 2019, MDR): > 32 µg/mL
- MIC (A. baumannii IHMA 2014931, South Africa 2019, Non-MDR): 1 µg/mL (≈ 2.08 µM)
- MIC (A. baumannii IHMA 2019315, Romania 2019, Non-MDR): 0.5 µg/mL (≈ 1.04 µM)
- MIC (A. baumannii IHMA 2020360, Croatia 2019, MDR): 32 µg/mL (≈ 66.6 µM)
- MIC (A. baumannii IHMA 2031511, Greece 2019, Non-MDR): 1 µg/mL (≈ 2.08 µM)
- MIC (A. baumannii IHMA 2031524, Greece 2019, MDR): > 32 µg/mL
- MIC (A. baumannii IHMA 2034657, Tunisia 2019, Non-MDR): 1 µg/mL (≈ 2.08 µM)
- MIC (A. baumannii IHMA 2035089, Serbia 2019, MDR): 32 µg/mL (≈ 66.6 µM)
- MIC (A. baumannii IHMA 2035134, Serbia 2019, Non-MDR): 1 µg/mL (≈ 2.08 µM)
- MIC (A. baumannii IHMA 2038976, Hungary 2019, MDR): 32 µg/mL (≈ 66.6 µM)
- MIC (A. baumannii IHMA 2051503, Serbia 2019, MDR): > 32 µg/mL
- MIC (A. baumannii IHMA 2058329, Slovenia 2019, Non-MDR): 1 µg/mL (≈ 2.08 µM)
- MIC (A. baumannii IHMA 2065587, France 2019, Non-MDR): 1 µg/mL (≈ 2.08 µM)
- MIC (A. baumannii IHMA 2099294, United Kingdom 2019, Non-MDR): 4 µg/mL (≈ 8.32 µM)
- MIC (A. baumannii IHMA 2129256, Qatar 2019, Non-MDR): 1 µg/mL (≈ 2.08 µM)
- MIC (A. baumannii IHMA 2154584, Israel 2020, MDR): > 32 µg/mL
- MIC (A. baumannii IHMA 2155340, Kenya 2020, MDR): > 32 µg/mL
- MIC (A. baumannii IHMA 2156634, Turkey 2020, MDR): > 32 µg/mL
- MIC (A. baumannii IHMA 2156709, Turkey 2020, MDR): > 32 µg/mL
SMILES: CO/N=C(\C(=O)N[C@@H]1C(=O)N2C(C(=O)[O-])=C(C[N+]3(C)CCCC3)CS[C@H]12)c1csc(N)n1 [Cefepime, cefepime]
